Laboratory results reported in BindingDB's records for doi:10.1021/jm060797q (Teikyo University, 2006).

Assay: Antagonist activity against 1-alpha,25-dihydroxy vitamin D3-induced HL60 cell differentiation by NBT reduction method

Row | IC50 | SMILES
1 | 10 nM | C=C1/C(=C\C=C2/CCC[C@]3(C)[C@@H]([C@H](C)C[C@H]4OC(=O)C(=C)[C@@H]4CC(C)C)CC[C@@H]23)C[C@@H](O)C[C@@H]1O
2 | 8.4 nM | C=C1/C(=C\C=C2/CCC[C@]3(C)[C@@H]([C@H](C)C[C@@H]4OC(=O)C(=C)[C@H]4CC)CC[C@@H]23)C[C@@H](O)[C@H](CCCO)[C@@H]1O
3 | 6.7 nM | C=C1/C(=C\C=C2/CCC[C@]3(C)[C@@H]([C@H](C)C[C@@H]4OC(=O)C(=C)[C@H]4CC)CC[C@@H]23)C[C@@H](O)[C@H](C)[C@@H]1O
4 | 8.4 nM | C=C1/C(=C\C=C2/CCC[C@]3(C)[C@@H]([C@H](C)C[C@H]4OC(=O)C(=C)[C@@H]4CC)CC[C@@H]23)C[C@@H](O)[C@H](OCCCO)[C@@H]1O
5 | 9.3 nM | C=C1/C(=C\C=C2/CCC[C@]3(C)[C@@H]([C@H](C)C[C@H]4OC(=O)C(=C)[C@H]4CC(C)C)CC[C@@H]23)C[C@@H](O)[C@H](CCCO)[C@@H]1O
6 | 6.7 nM | C=C1/C(=C\C=C2/CCC[C@]3(C)[C@@H]([C@H](C)C[C@@H]4OC(=O)C(=C)[C@H]4CCCC)CC[C@@H]23)C[C@@H](O)[C@H](C)[C@@H]1O
7 | 6.1 nM | C=C1/C(=C\C=C2/CCC[C@]3(C)[C@@H]([C@H](C)C[C@@H]4OC(=O)C(=C)[C@@H]4C)CC[C@@H]23)C[C@@H](O)[C@H](OCCCO)[C@@H]1O
8 | 8.4 nM | C=C1/C(=C\C=C2/CCC[C@]3(C)[C@@H]([C@H](C)C[C@@H]4OC(=O)C(=C)[C@@H]4CC)CC[C@@H]23)C[C@@H](O)[C@H](OCCCO)[C@@H]1O
9 | 8.6 nM | C=C1C(=O)O[C@@H](C[C@@H](C)[C@H]2CC[C@H]3/C(=C/C=C4/C[C@@H](O)C[C@H](O)C4=C)CCC[C@]23C)[C@@H]1CC
10 | 6 nM | C=C1C(=O)O[C@H](C[C@@H](C)[C@H]2CC[C@H]3/C(=C/C=C4/C[C@@H](O)C[C@H](O)C4=C)CCC[C@]23C)[C@@H]1CCC
11 | 6.7 nM | C=C1/C(=C\C=C2/CCC[C@]3(C)[C@@H]([C@H](C)C[C@@H]4OC(=O)C(=C)[C@@H]4CCCC)CC[C@@H]23)C[C@@H](O)[C@H](C)[C@@H]1O
12 | 8.8 nM | C=C1/C(=C\C=C2/CCC[C@]3(C)[C@@H]([C@H](C)C[C@@H]4OC(=O)C(=C)[C@H]4CCCC)CC[C@@H]23)C[C@@H](O)[C@H](CCCO)[C@@H]1O
13 | 6 nM | C=C1C(=O)O[C@@H](C[C@@H](C)[C@H]2CC[C@H]3/C(=C/C=C4/C[C@@H](O)C[C@H](O)C4=C)CCC[C@]23C)[C@@H]1CCC
14 | 6.1 nM | C=C1C(=O)O[C@@H](C[C@@H](C)[C@H]2CC[C@H]3/C(=C/C=C4/C[C@@H](O)[C@H](OCCCO)[C@H](O)C4=C)CCC[C@]23C)[C@@H]1C
15 | 8.8 nM | C=C1/C(=C\C=C2/CCC[C@]3(C)[C@@H]([C@H](C)C[C@H]4OC(=O)C(=C)[C@H]4CCCC)CC[C@@H]23)C[C@@H](O)[C@H](OCCCO)[C@@H]1O
16 | 6 nM | C=C1/C(=C\C=C2/CCC[C@]3(C)[C@@H]([C@H](C)C[C@H]4OC(=O)C(=C)C4(C)C)CC[C@@H]23)C[C@@H](O)C[C@@H]1O
17 | 7.7 nM | C=C1C(=O)O[C@@H](C[C@@H](C)[C@H]2CC[C@H]3/C(=C/C=C4/C[C@@H](O)C[C@H](O)C4=C)CCC[C@]23C)[C@@H]1C
18 | 6.1 nM | C=C1/C(=C\C=C2/CCC[C@]3(C)[C@@H]([C@H](C)C[C@H]4OC(=O)C(=C)[C@@H]4C)CC[C@@H]23)C[C@@H](O)[C@H](OCCCO)[C@@H]1O
19 | 9.5 nM | C=C1/C(=C\C=C2/CCC[C@]3(C)[C@@H]([C@H](C)C[C@@H]4OC(=O)C(=C)[C@@H]4CC(C)C)CC[C@@H]23)C[C@@H](O)C[C@@H]1O
20 | 8.6 nM | C=C1C(=O)O[C@H](C[C@@H](C)[C@H]2CC[C@H]3/C(=C/C=C4/C[C@@H](O)C[C@H](O)C4=C)CCC[C@]23C)[C@@H]1CC
21 | 8.1 nM | C=C1C(=O)O[C@H](C[C@@H](C)[C@H]2CC[C@H]3/C(=C/C=C4/C[C@@H](O)[C@H](C)[C@H](O)C4=C)CCC[C@]23C)[C@@H]1C
22 | 9.3 nM | C=C1/C(=C\C=C2/CCC[C@]3(C)[C@@H]([C@H](C)C[C@H]4OC(=O)C(=C)[C@@H]4CC(C)C)CC[C@@H]23)C[C@@H](O)[C@H](CCCO)[C@@H]1O
23 | 8.8 nM | C=C1/C(=C\C=C2/CCC[C@]3(C)[C@@H]([C@H](C)C[C@@H]4OC(=O)C(=C)[C@@H]4CCCC)CC[C@@H]23)C[C@@H](O)[C@H](OCCCO)[C@@H]1O
24 | 6.3 nM | C=C1/C(=C\C=C2/CCC[C@]3(C)[C@@H]([C@H](C)C[C@H]4OC(=O)C(=C)[C@H]4CCC)CC[C@@H]23)C[C@@H](O)[C@H](C)[C@@H]1O
25 | 7.7 nM | C=C1/C(=C\C=C2/CCC[C@]3(C)[C@@H]([C@H](C)C[C@@H]4OC(=O)C(=C)[C@@H]4C)CC[C@@H]23)C[C@@H](O)C[C@@H]1O
26 | 6.2 nM | C=C1/C(=C\C=C2/CCC[C@]3(C)[C@@H]([C@H](C)C[C@@H]4OC(=O)C(=C)[C@@H]4C)CC[C@@H]23)C[C@@H](O)[C@H](CCCO)[C@@H]1O
27 | 10 nM | C=C1C(=O)O[C@H](C[C@@H](C)[C@H]2CC[C@H]3/C(=C/C=C4/C[C@@H](O)C[C@H](O)C4=C)CCC[C@]23C)[C@@H]1CC(C)C
28 | 6.3 nM | C=C1/C(=C\C=C2/CCC[C@]3(C)[C@@H]([C@H](C)C[C@@H]4OC(=O)C(=C)[C@@H]4CCC)CC[C@@H]23)C[C@@H](O)[C@H](CCCO)[C@@H]1O

Row | IC50 | SMILES
29 | 6.3 nM | C=C1/C(=C\C=C2/CCC[C@]3(C)[C@@H]([C@H](C)C[C@H]4OC(=O)C(=C)[C@@H]4CCC)CC[C@@H]23)C[C@@H](O)[C@H](C)[C@@H]1O
30 | 8.2 nM | C=C1/C(=C\C=C2/CCC[C@]3(C)[C@@H]([C@H](C)C[C@H]4OC(=O)C(=C)[C@@H]4CCCC)CC[C@@H]23)C[C@@H](O)C[C@@H]1O
31 | 6.3 nM | C=C1/C(=C\C=C2/CCC[C@]3(C)[C@@H]([C@H](C)C[C@@H]4OC(=O)C(=C)[C@H]4CCC)CC[C@@H]23)C[C@@H](O)[C@H](OCCCO)[C@@H]1O
32 | 6.2 nM | C=C1C(=O)O[C@@H](C[C@@H](C)[C@H]2CC[C@H]3/C(=C/C=C4/C[C@@H](O)[C@H](CCCO)[C@H](O)C4=C)CCC[C@]23C)[C@@H]1C
33 | 8.4 nM | C=C1/C(=C\C=C2/CCC[C@]3(C)[C@@H]([C@H](C)C[C@@H]4OC(=O)C(=C)[C@@H]4CC)CC[C@@H]23)C[C@@H](O)[C@H](CCCO)[C@@H]1O
34 | 6 nM | C=C1/C(=C\C=C2/CCC[C@]3(C)[C@@H]([C@H](C)C[C@H]4OC(=O)C(=C)[C@@H]4CCC)CC[C@@H]23)C[C@@H](O)C[C@@H]1O
35 | 8.2 nM | C=C1C(=O)O[C@H](C[C@@H](C)[C@H]2CC[C@H]3/C(=C/C=C4/C[C@@H](O)C[C@H](O)C4=C)CCC[C@]23C)[C@@H]1CCCC
36 | 8.8 nM | C=C1/C(=C\C=C2/CCC[C@]3(C)[C@@H]([C@H](C)C[C@@H]4OC(=O)C(=C)[C@@H]4CCCC)CC[C@@H]23)C[C@@H](O)[C@H](CCCO)[C@@H]1O
37 | 6.3 nM | C=C1/C(=C\C=C2/CCC[C@]3(C)[C@@H]([C@H](C)C[C@H]4OC(=O)C(=C)[C@@H]4CCC)CC[C@@H]23)C[C@@H](O)[C@H](CCCO)[C@@H]1O
38 | 6.8 nM | C=C1/C(=C\C=C2/CCC[C@]3(C)[C@@H]([C@H](C)C[C@@H]4OC(=O)C(=C)[C@@H]4C)CC[C@@H]23)C[C@@H](O)[C@H](C)[C@@H]1O
39 | 9.3 nM | C=C1/C(=C\C=C2/CCC[C@]3(C)[C@@H]([C@H](C)C[C@@H]4OC(=O)C(=C)[C@@H]4CC(C)C)CC[C@@H]23)C[C@@H](O)[C@H](OCCCO)[C@@H]1O
40 | 8.2 nM | C=C1C(=O)O[C@@H](C[C@@H](C)[C@H]2CC[C@H]3/C(=C/C=C4/C[C@@H](O)C[C@H](O)C4=C)CCC[C@]23C)[C@@H]1CCCC
41 | 8.8 nM | C=C1/C(=C\C=C2/CCC[C@]3(C)[C@@H]([C@H](C)C[C@H]4OC(=O)C(=C)[C@H]4CCCC)CC[C@@H]23)C[C@@H](O)[C@H](CCCO)[C@@H]1O
42 | 11 nM | C=C1/C(=C\C=C2/CCC[C@]3(C)[C@@H]([C@H](C)C[C@H]4OC(=O)C(=C)[C@@H]4CC(C)C)CC[C@@H]23)C[C@@H](O)[C@H](C)[C@@H]1O
43 | 8.8 nM | C=C1/C(=C\C=C2/CCC[C@]3(C)[C@@H]([C@H](C)C[C@H]4OC(=O)C(=C)[C@@H]4CCCC)CC[C@@H]23)C[C@@H](O)[C@H](OCCCO)[C@@H]1O
44 | 9.3 nM | C=C1/C(=C\C=C2/CCC[C@]3(C)[C@@H]([C@H](C)C[C@H]4OC(=O)C(=C)[C@@H]4CC(C)C)CC[C@@H]23)C[C@@H](O)[C@H](OCCCO)[C@@H]1O
45 | 8.4 nM | C=C1/C(=C\C=C2/CCC[C@]3(C)[C@@H]([C@H](C)C[C@@H]4OC(=O)C(=C)[C@H]4CC)CC[C@@H]23)C[C@@H](O)[C@H](OCCCO)[C@@H]1O
46 | 6.3 nM | C=C1/C(=C\C=C2/CCC[C@]3(C)[C@@H]([C@H](C)C[C@@H]4OC(=O)C(=C)[C@H]4CCC)CC[C@@H]23)C[C@@H](O)[C@H](CCCO)[C@@H]1O
47 | 9.3 nM | C=C1/C(=C\C=C2/CCC[C@]3(C)[C@@H]([C@H](C)C[C@H]4OC(=O)C(=C)[C@H]4CC(C)C)CC[C@@H]23)C[C@@H](O)[C@H](OCCCO)[C@@H]1O
48 | 8.4 nM | C=C1/C(=C\C=C2/CCC[C@]3(C)[C@@H]([C@H](C)C[C@H]4OC(=O)C(=C)[C@H]4CC)CC[C@@H]23)C[C@@H](O)[C@H](OCCCO)[C@@H]1O
49 | 6.7 nM | C=C1/C(=C\C=C2/CCC[C@]3(C)[C@@H]([C@H](C)C[C@H]4OC(=O)C(=C)[C@H]4CCCC)CC[C@@H]23)C[C@@H](O)[C@H](C)[C@@H]1O
50 | 6.1 nM | C=C1C(=O)O[C@H](C[C@@H](C)[C@H]2CC[C@H]3/C(=C/C=C4/C[C@@H](O)[C@H](OCCCO)[C@H](O)C4=C)CCC[C@]23C)[C@@H]1C
51 | 6.3 nM | C=C1/C(=C\C=C2/CCC[C@]3(C)[C@@H]([C@H](C)C[C@@H]4OC(=O)C(=C)[C@H]4CCC)CC[C@@H]23)C[C@@H](O)[C@H](C)[C@@H]1O
52 | 6.8 nM | C=C1C(=O)O[C@@H](C[C@@H](C)[C@H]2CC[C@H]3/C(=C/C=C4/C[C@@H](O)[C@H](C)[C@H](O)C4=C)CCC[C@]23C)[C@@H]1C
53 | 6.3 nM | C=C1/C(=C\C=C2/CCC[C@]3(C)[C@@H]([C@H](C)C[C@H]4OC(=O)C(=C)[C@@H]4CCC)CC[C@@H]23)C[C@@H](O)[C@H](OCCCO)[C@@H]1O
54 | 6 nM | C=C1C[C@@H](C[C@@H](C)[C@H]2CC[C@H]3/C(=C/C=C4/C[C@@H](O)C[C@H](O)C4=C)CCC[C@]23C)OC1=O
55 | 11 nM | C=C1/C(=C\C=C2/CCC[C@]3(C)[C@@H]([C@H](C)C[C@@H]4OC(=O)C(=C)[C@H]4CC(C)C)CC[C@@H]23)C[C@@H](O)[C@H](C)[C@@H]1O
